Laboratory results published in patent US8017629B2, “Compounds and uses thereof in modulating amyloid β” (Neurogenetic Pharmaceuticals, Inc., priority 2003, dated 2011).

tested on: Aβ42 levels in the extracellular medium; assay: FRET (HTRF) assay, Aβ42 level of the extracellular medium of SH-SY5Y-APP cells; assay type: cell-based; details: Homo sapiens, concentration at which reduction of Aβ42 level was half of the maximum reduction, read-out: Ab42 Potency
Protocol: Compounds were evaluated for activity in modulating Aβ42 and Aβ40 levels in the extracellular medium using a homogeneous time-resolved fluorescence (HTRF) assay as follows.
For the HTRF assay, either 5 or 10 μl of supernatant from treated cells was added to 10 or 15 μl of labeled antibody pairs, for a total volume of 20 μl, and incubated for 20-24 hours at 4° C. The labeled antibody pairs were either 8000 pg B436-XL665 and 400 pg B113 Europium, for assessing Aβ40 levels, or 8000 pg B436-XL665 and 400 pg A387 Europium, for assessing Aβ42 levels, diluted in 50 mM NaPO4, 0.2% BSA, 0.5M KF, pH 7. The fluorescence was read on a BMG Rubystar at 620 nm and 665 nm.

Row | Structure (SMILES) | EC50 [µM]
1 | CCN(CC)c1ccc(Nc2nc(-c3ccc(-n4ccnc4)cc3)cs2)c(C(F)(F)F)c1 [Compound 218] | 1.1 to 5
2 | CCCN(c1ccc(Cl)c(Cl)c1)c1nc(-c2ccc(-n3ccnc3)cc2)cs1 [Compound 174] | 10.1 to 30
3 | FC(F)(F)c1cc(NCc2ccccn2)ccc1Nc1nc(-c2ccc(-n3ccnc3)cc2)cs1 [Compound 223] | 5.1 to 10
4 | N#Cc1ccc(-c2csc(Nc3cc(Cl)cc(Cl)c3)n2)cc1 [Compound 211] | 10.1 to 30
5 | Cc1ccc(N2CCSCC2)cc1Nc1nc(-c2ccc(-n3ccnc3)cc2)cs1 [Compound 254] | 0.2 to 1
6 | COc1ccc(-c2csc(Nc3ccc4[nH]cnc4c3)n2)c(OC)c1 [Compound 160] | 0.2 to 1
7 | CCc1cccc(Nc2nc(-c3ccc(N4CCN(C)CC4)cc3)cs2)c1 [Compound 234] | 1.1 to 5
8 | c1cc2c(cc1Nc1nc(-c3ccc4c(c3)OCCO4)cs1)OCO2 [Compound 103] | 5.1 to 10
9 | CCN(CC)c1ccc(Nc2nc(-c3ccc(N4CCN(C)CC4)nc3)cs2)c(C)c1 [Compound 329] | 10.1 to 30
10 | CS(=O)(=O)c1ccc(-c2csc(Nc3c(Cl)cc(Cl)cc3Cl)n2)cc1 [Compound 214] | 10.1 to 30
11 | CCN(CCO)c1ccc(Nc2nc(-c3ccc(-n4cnc(C)c4)cc3C(F)(F)F)c(C)s2)c(C)c1 [Compound 206] | 5.1 to 10
12 | COc1ccc(-c2csc(Nc3cccc(Cl)c3)n2)c(OC)c1 [Compound 153] | 5.1 to 10
13 | Cc1cc(N2CCN(C)CC2)ccc1Nc1nc(-c2ccc(-n3ccnc3)cc2)cs1 [Compound 200] | 1.1 to 5
14 | CCCN(c1nc(-c2ccc(-n3ccnc3)cc2)cs1)c1ccc(N(CC)CC)cc1C [Compound 175] | 10.1 to 30
15 | COc1ccc(-c2coc(Nc3ccccc3)n2)cc1 [Compound 338] | 10.1 to 30
16 | c1cc(Nc2nc(-c3ccncc3)cs2)c2cn[nH]c2c1 [Compound 170] | 1.1 to 5
17 | Clc1ccc(Nc2nc(-c3ccc(-n4ccnc4)cc3)cs2)cc1Cl [Compound 173] | 1.1 to 5
18 | CCN(CC)c1ccc(Nc2nc(-c3ccc(-n4ccnc4)cc3)cs2)cc1 [Compound 177] | 1.1 to 5

Row | Structure (SMILES) | EC50 [µM]
19 | CN1CCN(c2ccc(-c3csc(Nc4ccc(Br)cc4)n3)cc2)CC1 [Compound 138] | 10.1 to 30
20 | CCc1cc(N2CCN(C)CC2)ccc1Nc1nc(-c2ccc(-n3ccnc3)cc2)cs1 [Compound 240] | 1.1 to 5
21 | Cc1cccc(Nc2nc(-c3ccc(N4CCN(C)CC4)cc3)cs2)c1 [Compound 226] | 1.1 to 5
22 | FC(F)(F)c1cc(NC2CCCC2)ccc1Nc1nc(-c2ccc(-n3ccnc3)cc2)cs1 [Compound 220] | 10.1 to 30
23 | COc1cccc(Nc2nc(-c3ccc(N=Nc4ccccc4)cc3)cs2)c1 [Compound 131] | 10.1 to 30
24 | CN1CCN(c2ccc(-c3csc(Nc4ccc5[nH]cnc5c4)n3)cc2)CC1 [Compound 155] | 1.1 to 5
25 | c1cc(Nc2nc(-c3ccc4c(c3)OCO4)cs2)c2cn[nH]c2c1 [Compound 172] | 1.1 to 5
26 | CN1CCN(c2ccc(-c3csc(Nc4ccc5c(c4)OCCO5)n3)cc2)CC1 [Compound 134] | 1.1 to 5
27 | CC(C)N1CCN(C(=O)c2ccc(Nc3nc(-c4ccc(N5CCN(C)CC5)cc4)cs3)cc2)CC1 [Compound 192] | 5.1 to 10
28 | COc1cc(Nc2nc(-c3ccc(-c4ccccc4)s3)cs2)cc(OC)c1OC [Compound 107] | 10.1 to 30
29 | CCN(CC)c1ccc(Nc2nc(-c3ccc(-n4cnc(C)c4)cc3C(F)(F)F)c(C)s2)c(C)c1 [Compound 205] | 1.1 to 5
30 | CN1CCN(C(=O)c2ccc(Nc3nc(-c4ccc(N5CCN(C)CC5)cc4)cs3)cc2)CC1 [Compound 191] | 1.1 to 5
31 | Cc1ccc(N2CCOCC2)cc1Nc1nc(-c2ccc(-n3ccnc3)cc2)cs1 [Compound 253] | 0.2 to 1
32 | FC(F)(F)c1cc(NCCN2CCCC2)ccc1Nc1nc(-c2ccc(-n3ccnc3)cc2)cs1 [Compound 222] | 1.1 to 5
33 | c1cc2c(cc1Nc1nc(-c3ccc4c(c3)OCO4)cs1)OCO2 [Compound 105] | 1.1 to 5
34 | CSc1cccc(Nc2nc(-c3ccc4c(c3)OCO4)cs2)c1 [Compound 183] | 10.1 to 30
35 | CN1CCN(c2ccc(-c3csc(Nc4ccc(Oc5ccccc5)cc4)n3)cc2)CC1 [Compound 142] | 1.1 to 5

Further lines, results first:

Row | EC50 [µM] | Structure (SMILES)
36 | < 0.2 | CCOc1cc(C)c(Nc2nc(-c3ccc(-n4ccnc4)nc3)cs2)cc1C [Compound 318]
37 | < 0.2 | COc1ccc(C)c(Nc2nc(-c3ccc(-n4cnc(C)c4)nc3)cs2)c1 [Compound 197]
38 | 5.1 to 10 | CCN(CC)c1ccc(Nc2nc(-c3ccc(-n4cnc(C)c4)cc3C(F)(F)F)cs2)c(C)c1 [Compound 227]
39 | 0.2 to 1 | Cc1cn(-c2ccc(-c3nc(Nc4cc(-n5cccc5)ccc4C)sc3C)cc2)cn1 [Compound 278]
40 | 5.1 to 10 | CCc1ccc(C)nc1Nc1ccc(C)c(Nc2nc(-c3ccc(-n4ccnc4)cc3)cs2)c1 [Compound 257]
41 | < 0.2 | CCN(CC)c1ccc(Nc2nc(-c3cnc(-n4cnc(C)c4)nc3)cs2)c(C)c1 [Compound 342]
42 | 0.2 to 1 | CCN(CC)c1ccc(Nc2nc(-c3ccc(-c4ncc(Br)s4)cc3)cs2)c(C)c1 [Compound 312]
43 | 1.1 to 5 | CCc1cc(N(CC)CC)ccc1Nc1nc(-c2ccc(-n3ccnc3)cc2)cs1 [Compound 241]
44 | 1.1 to 5 | COc1cc(C)c(Nc2nc(-c3ccc(-n4cnc(C)c4)cc3)cs2)cc1OC [Compound 267]
45 | 0.2 to 1 | Cc1cn(-c2ccc(-c3csc(Nc4cc(CO)ccc4C)n3)cc2)cn1 [Compound 299]
46 | 5.1 to 10 | CCN(CC)c1ccc(Nc2nc(-c3ccc(-c4c[nH]c(C)n4)cc3)cs2)c(C)c1 [Compound 248]
47 | 1.1 to 5 | CCOc1cc(C)c(Nc2nc(-c3ccc(N4CCN(C)CC4)cc3)cs2)cc1C [Compound 322]
48 | 1.1 to 5 | COc1cc(Nc2nc(-c3ccc(N4CCN(C)CC4)cc3)cs2)cc(OC)c1OC [Compound 116]
49 | 1.1 to 5 | CCN(CCO)c1ccc(Nc2nc(-c3ccc(-n4cnc(C)c4)cc3OC)cs2)c(C)c1 [Compound 207]
50 | < 0.2 | COc1cc(C)c(Nc2nc(-c3ccc(-n4cnc(C)c4)cc3)c(C)s2)cc1C(C)C [Compound 297]
51 | 0.2 to 1 | COc1cc(C)c(Nc2nc(-c3ccc(N4CCN(C)CC4)cc3)cs2)cc1C(C)C [Compound 321]
52 | 0.2 to 1 | COc1cc(C)c(Nc2nc(-c3ccc(-n4cc(C)cn4)cc3)cs2)cc1C(C)C [Compound 308]
53 | < 0.2 | CCOc1cc(C)c(Nc2nc(-c3ccc(-n4cnc(C)c4)cc3)cs2)cc1C [Compound 271]
54 | 1.1 to 5 | CCN(CC)c1ccc(Nc2nc(-c3ccc(-n4cc(C(C)=O)nn4)cc3)cs2)c(C)c1 [Compound 274]
55 | 0.2 to 1 | CCN(CC)c1ccc(Nc2nc(-c3ccc(-n4cnc(Br)c4)cc3)cs2)c(C)c1 [Compound 199]
56 | 5.1 to 10 | CSc1cccc(Nc2nc(-c3ccc(-n4cnc(Br)c4)cc3)cs2)c1 [Compound 266]
57 | < 0.2 | Cc1cn(-c2ccc(-c3csc(Nc4cc(C(C)C)ccc4C)n3)cc2)cn1 [Compound 326]

Row | EC50 [µM] | Structure (SMILES)
58 | < 0.2 | CCN(C)c1cc(Nc2nc(-c3ccc(-n4ccnc4)cc3)cs2)c(C)cc1C [Compound 334]
59 | 10.1 to 30 | COc1cccc(Nc2nc(-c3ccc(-n4ccnc4)cc3)cs2)c1 [Compound 181]
60 | 10.1 to 30 | Cc1cc(C)cc(Nc2nc(-c3ccc(-n4cnc(-c5ccccc5)c4)cc3)cs2)c1 [Compound 178]
61 | 0.2 to 1 | CCN(CC)c1ccc(Nc2nc(-c3ccc(-n4cnc(C)c4)cc3)cs2)c(C)c1 [Compound 179]
62 | < 0.2 | CCN(CC)c1cc(C)c(Nc2nc(-c3ccc(-n4cnc(C)c4)nc3)cs2)cc1C [Compound 286]
63 | < 0.2 | CCCN(CC)c1ccc(C)c(Nc2nc(-c3ccc(-n4cnc(C)c4)cc3)cs2)c1 [Compound 337]
64 | < 0.2 | CCCN(C)c1ccc(C)c(Nc2nc(-c3ccc(-n4cnc(C)c4)cc3)cs2)c1 [Compound 348]
65 | < 0.2 | CCN(CC)c1ccc(C)c(Nc2nc(-c3cnc(-n4cnc(C)c4)nc3)cs2)c1 [Compound 341]
66 | < 0.2 | CCN(C)c1ccc(C)c(Nc2nc(-c3ccc(-n4cnc(C)c4)cc3)cs2)c1 [Compound 347]
67 | < 0.2 | CCN(CC)c1ccc(C)c(Nc2nc(-c3ccc(-n4cc(C)nn4)cc3)cs2)c1 [Compound 346]
68 | 1.1 to 5 | COc1ccc(-c2csc(Nc3ccc(OC)c(OC)c3)n2)c(OC)c1 [Compound 101]
69 | < 0.2 | Cc1ccc(C)c(Nc2nc(-c3ccc(-n4cnc(C)c4)nc3)cs2)c1 [Compound 185]
70 | 0.2 to 1 | Cc1cn(-c2ccc(-c3csc(Nc4cc(Cl)c(Cl)cc4Cl)n3)cc2)cn1 [Compound 237]
71 | 1.1 to 5 | CCN(CC)c1ccc(Nc2nc(-c3ccc(-n4cc(C(C)O)nn4)cc3)cs2)c(C)c1 (stereo not shown) [Compound 275]
72 | < 0.2 | Cc1ccc(C)c(Nc2nc(-c3ccc(-n4cnc(Br)c4)cc3)cs2)c1 [Compound 316]
73 | < 0.2 | Cc1cn(-c2ccc(-c3csc(Nc4cc(-n5cccc5)ccc4C)n3)cn2)cn1 [Compound 277]
74 | 0.2 to 1 | CCN(CCO)c1ccc(Nc2nc(-c3ccc(-n4cnc(C)c4)cc3)cs2)c(C)c1 [Compound 204]
75 | 1.1 to 5 | Cc1cn(-c2ccc(-c3nc(Nc4cc(Cl)c(Cl)cc4Cl)sc3C)cc2)cn1 [Compound 245]
76 | < 0.2 | Cc1cn(-c2ncc(-c3csc(Nc4cc(C)c(C)cc4C)n3)cn2)cn1 [Compound 349]
77 | < 0.2 | Cc1cn(-c2ccc(-c3csc(Nc4cc(C(C)C)ccc4C)n3)cn2)cn1 [Compound 327]
78 | 5.1 to 10 | Cc1cn(-c2ccc(-c3csc(Nc4cc(C)c(O)cc4C)n3)cc2)cn1 [Compound 269]
79 | < 0.2 | CCN(CC)c1cc(Nc2nc(-c3ccc(-n4cnc(C)c4)nc3)cs2)c(C)cc1C [Compound 289]
